Assays:
[1] = system: L-phenylalanine-dehydrogenase; experiment: Photometric test of reductive amination (decrease of NADH at 340 nm); conditions: purified PheDH (0.055 mg protein/ml), pH 8.5, 0.2 mM NADH, 0.7M ammonium chloride
Description: The enzyme activity is determined with a photometric test, by measuring the decrease of the adsorption of NADH at 340 nm. […] The reaction rate of the catalyzed reaction is measured in relation of pH. […] If the substrate concentration of the aromatic α-ketocarboxylic acids or of the aromatic L-aminocarboxylic acids is small compared to their Km value then the reaction rate depends linearly on the substrate concentration.
The relationship of the speed of reaction of the reductive amination of phenyl pyruvate to L-phenylalanine for the substrate NADH was investigated in the following test mixture:
The dependency of the speed of reaction of the reductive amination of phenyl pyruvate to L-phenylalanine on the ammonium ion concentration was investigated in the following test mixture.

[2] = system: L-phenylalanine-dehydrogenase; experiment: Batch reductive amination of α-ketocarboxylic acids with NADH regeneration by formate-dehydrogenase, product on aminoacid analyzer; type: biochemical, Brevibacterium species DSM 2448
Description: In order to regenerate the NADH consumed in the reductive amination there was added to the reaction mixture an excess of ammonium formate and the enzyme formate-dehydrogenase (E.C. 1.2.1.2) which in the oxidation of formate to CO2 reduces the cosubstrate NAD^+ to NADH.
The test mixture contained thereby uniformly 400 mM of ammonium formate (pH 8.5), 0.3 mM NADH, 0.6 U/ml formate-dehydrogenase (prepared according to Kroner et al (1982), J. Chem. Tech. Biotechnol, Volume 32, pages 130 to 137), 0.5 U/ml L-phenylalanine-dehydrogenase, 25 mM α-ketocarboxylic acid. The total volume was 3 ml. The incubation was carried out with stirring at 27° C. The product formation in each case was followed on the aminoacid analyzer.

[3] = system: L-phenylalanine-dehydrogenase; experiment: Continuous production of L-phenylalanine in enzyme membrane reactor with PEG-NADH; type: biochemical, Brevibacterium species DSM 2448; conditions: over 110 hours, residence time 2.5 hours, 20 mM phenyl pyruvate
From the text: It is possible to continuously synthesize phenalyalanine from phenyl pyruvate in an enzyme membrane reactor using molecular weight enlarged NADH bound to polyethylene glycoe (PEG). The PEG-NADH was produced according to German Pat. No. 2,841,414. The modified coenzyme and the enzyme formate-dehydrogenase employed and L-phenylalanine-dehydrogenase were retained in the reactor by an ultrafiltration membrane YM5 (product of the Amicon Company, Witten) while the lower molecular weight components of the reaction solution, unreacted substrate and the L-phenylalanine formed were continuously removed from the reactor. The reactor volume was held constant while phenyl pyruvate and ammonium formate were metered in from a reservoir to the same extent that the ultrafiltrate left the reactor. The reactor volume was 10 ml, the concentration of PEG-NADH 0.3 mM. There were injected into the reactor 20 units of formate-dehydrogenaseand 20 units of L-phenylalanine-dehydrogenase. […]
The reaction solution was continuously circulated over the membrane at 30 ml/hour with a peristaltic pump. […] The ultrafiltrate was collected in fractions and the content of L-phenylalanine determined on the aminoacid analyzer. Over a time span of 110 hours on the average 70% of the phenyl pyruvate was converted to L-phenylalanine, in the combined ultrafiltrates there were measured 6.9 mmoles (1.14 grams) of L-phenylalanine. […]

[4] = 25 mM α-ketocarboxylic acid, 0.5 U/ml enzyme, 27° C., 2 hours
[5] = 25 mM α-ketocarboxylic acid, 0.5 U/ml enzyme, 27° C., 6 hours

Q: Which results are given for `O=C(O)C(=O)Cc1ccccc1` [Phenylpyruvate, Phenyl pyruvic acid]?
A: Km [1]: 110 µM; Vmax [1]: 1.82 U/ml; Product Formation after 2 hours, % [2, 4]: 50%; Product Formation after 2 hours, mM [2, 4]: 12,5 mM; Product Formation after 6 hours, % [2, 5]: 66%; Product Formation after 6 hours, mM [2, 5]: 16,6 mM; Utilization as a substrate ([2]; result in words): converted well; phenyl pyruvate converted to L-phenylalanine, on the average [3]: 70%
